According to the supplement of paper PMC5908809:

Legend:
KAI3 (IL-2 2.5 ng/mL) [1] = assay: drug sensitivity score (DSS) (DSS units); higher = more sensitive; extreme values may be limits of the assay; settings: 72 h
[2] = tested on: normal primary NK cells, pool 1 (3 donors), resting (IL-2 0 ng/mL); assay: as above; settings: 72 h
[3] = tested on: normal primary NK cells, pool 1 (3 donors) (IL-2 2.5 ng/mL); assay: as above; settings: 72 h
[4] = tested on: normal primary NK cells, pool 2 (3 donors) (IL-2 2.5 ng/mL); assay: as above; settings: 72 h
IMC-1 (IL-2 20 ng/mL) [5] = assay: as above; settings: 72 h
[6] = tested on: normal primary NK cells, pool 3 (3 donors) (IL-2 2.5 ng/mL); assay: as above; settings: 72 h
NK-YS (IL-2 2.5 ng/mL) [7] = assay: as above; settings: 72 h
YT (IL-2 2.5 ng/mL) [8] = assay: as above; settings: 72 h
NK-92 (IL-2 2.5 ng/mL) [9] = assay: as above; settings: 72 h
KHYG-1 (IL-2 2.5 ng/mL) [10] = assay: as above; settings: 72 h
NKL (IL-2 2.5 ng/mL) [11] = assay: as above; settings: 72 h
DERL-7 (IL-2 2.5 ng/mL) [12] = assay: as above; settings: 72 h
SNK-6 (IL-2 2.5 ng/mL) [13] = assay: as above; settings: 72 h
[14] = tested on: normal NK cells expanded with K562-aAPC; assay: as above; settings: 72 h; IL-2 2.5 ng/mL
Protocol: (§1)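 Drug sensitivity and resistance testing on K562-aAPC-expanded normal NK cells: 5 concentrations (10-fold steps over a 10,000-fold range), 72 h at 37 °C, viability by CellTiter-Glo normalised to DMSO and benzethonium chloride controls; DSS from the fitted curve.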

KAI3 (IL-2 2.5 ng/mL) [15] = assay: percent inhibition of viability; higher = more inhibition; settings: 72 h
[16] = tested on: normal primary NK cells, pool 1 (3 donors), resting (IL-2 0 ng/mL); assay: as above; settings: 72 h
[17] = tested on: normal primary NK cells, pool 1 (3 donors) (IL-2 2.5 ng/mL); assay: as above; settings: 72 h
[18] = tested on: normal primary NK cells, pool 2 (3 donors) (IL-2 2.5 ng/mL); assay: as above; settings: 72 h
IMC-1 (IL-2 20 ng/mL) [19] = assay: as above; settings: 72 h
[20] = tested on: normal primary NK cells, pool 3 (3 donors) (IL-2 2.5 ng/mL); assay: as above; settings: 72 h
NK-YS (IL-2 2.5 ng/mL) [21] = assay: as above; settings: 72 h
YT (IL-2 2.5 ng/mL) [22] = assay: as above; settings: 72 h
NK-92 (IL-2 2.5 ng/mL) [23] = assay: as above; settings: 72 h
KHYG-1 (IL-2 2.5 ng/mL) [24] = assay: as above; settings: 72 h
NKL (IL-2 2.5 ng/mL) [25] = assay: as above; settings: 72 h
DERL-7 (IL-2 2.5 ng/mL) [26] = assay: as above; settings: 72 h
SNK-6 (IL-2 2.5 ng/mL) [27] = assay: as above; settings: 72 h
[28] = tested on: normal NK cells expanded with K562-aAPC; assay: as above; settings: 72 h, IL-2 2.5 ng/mL
Protocol: as §1

O=C(CCBr)N1CCN(C(=O)CCBr)CC1 [Pipobroman] (max concentration tested 10000 nM)
Settings	drug sensitivity score
DERL-7 (IL-2 2.5 ng/mL) [12]	0
IMC-1 (IL-2 20 ng/mL) [5]	0.19
KAI3 (IL-2 2.5 ng/mL) [1]	0.46
KHYG-1 (IL-2 2.5 ng/mL) [10]	0.42
NK-92 (IL-2 2.5 ng/mL) [9]	1.49
NK-YS (IL-2 2.5 ng/mL) [7]	1.85
NKL (IL-2 2.5 ng/mL) [11]	1.54
SNK-6 (IL-2 2.5 ng/mL) [13]	0
YT (IL-2 2.5 ng/mL) [8]	0.07
[2]	6.82
[3]	0
[4]	0
[6]	0.45
[14]	1.23

percent inhibition of viability [%]
Settings	1 nM	10 nM	100 nM	1000 nM	10000 nM
DERL-7 (IL-2 2.5 ng/mL) [26]	-7.31	-1.37	2	-0.47	-5.96
IMC-1 (IL-2 20 ng/mL) [19]	-6.08	-8.46	-2.84	4.89	11.6
KAI3 (IL-2 2.5 ng/mL) [15]	-6.26	-3.77	3.05	9.16	13.5
KHYG-1 (IL-2 2.5 ng/mL) [24]	-9.07	-13.9	-7.89	3.77	13.7
NK-92 (IL-2 2.5 ng/mL) [23]	-22.2	-18.9	-1.01	4.98	22.7
NK-YS (IL-2 2.5 ng/mL) [21]	-6.73	-7.25	-3.41	11.6	20.9
NKL (IL-2 2.5 ng/mL) [25]	-27.2	-17.8	-14.3	16.6	15.7
SNK-6 (IL-2 2.5 ng/mL) [27]	-14.3	-17.7	-17.4	-17.5	-6.39
YT (IL-2 2.5 ng/mL) [22]	-7.45	-10.7	-5.22	0.28	12.2
[16]	2.78	-3.45	22.7	19.1	26.8
[17]	1.85	-2.09	11.8	-0.73	2.49
[18]	-5.41	-3.61	2.8	4.47	2.02
[20]	-9.04	-2.96	2.05	2.18	15.1
[28]	-6.43	-6.37	-5.59	7.79	18.1

CNC(=O)c1cc(Oc2ccc(NC(=O)Nc3ccc(Cl)c(C(F)(F)F)c3)cc2)ccn1 [Sorafenib] (max concentration tested 1000 nM)
Settings	drug sensitivity score
DERL-7 (IL-2 2.5 ng/mL) [12]	1.11
IMC-1 (IL-2 20 ng/mL) [5]	0
KAI3 (IL-2 2.5 ng/mL) [1]	0
KHYG-1 (IL-2 2.5 ng/mL) [10]	0
NK-92 (IL-2 2.5 ng/mL) [9]	0.73
NK-YS (IL-2 2.5 ng/mL) [7]	0
NKL (IL-2 2.5 ng/mL) [11]	0
SNK-6 (IL-2 2.5 ng/mL) [13]	3.94
YT (IL-2 2.5 ng/mL) [8]	0
[2]	1.53
[3]	0
[4]	0
[6]	0
[14]	0

percent inhibition of viability [%]
Settings	0.1 nM	1 nM	10 nM	100 nM	1000 nM
DERL-7 (IL-2 2.5 ng/mL) [26]	-14.3	2.59	4.15	1.1	25.2
IMC-1 (IL-2 20 ng/mL) [19]	-6.25	-2.7	-8.4	-3.64	-1.65
KAI3 (IL-2 2.5 ng/mL) [15]	2.87	5.97	0.72	2.84	-4.41
KHYG-1 (IL-2 2.5 ng/mL) [24]	-1.09	0	-1.1	2.71	-0.82
NK-92 (IL-2 2.5 ng/mL) [23]	-2.2	-1.4	-3.13	-5.91	25.7
NK-YS (IL-2 2.5 ng/mL) [21]	-0.65	-1.62	-0.99	3.14	5.95
NKL (IL-2 2.5 ng/mL) [25]	-18.1	-17.9	-14.8	-9.31	-11.3
SNK-6 (IL-2 2.5 ng/mL) [27]	9.25	14.7	5.19	17.7	30.7
YT (IL-2 2.5 ng/mL) [22]	-0.23	-2.47	0.91	1.22	3.17
[16]	-6.78	-15.6	0.71	9.47	20.5
[17]	-10	-8.22	-3.22	-10.4	-2.85
[18]	-8.52	-3.3	-11.4	-7	-14.1
[20]	-4.53	-9.01	-3.28	-8.55	-2.67
[28]	-0.62	-4.84	0.63	-4.73	-7.05
